# Patent publication US9180155B2, “Compositions from Nigella sativa” (Bio Nexus, Ltd, priority 2013, dated 2015)
# Key:
# 3T3-L1 adipocytes = assay: Lipolysis (glycerol assay) in 3T3-L1 adipocytes; assay type: cell-based, murine; conditions: forskolin 82 μg/mL, test materials 5 μg/mL (FIG. 9)
# Experimental: Culture and treatment of 3T3-L1 adipocytes and C2C12 myocytes was as described in Example 5. Concentrations of the forskolin positive control and test materials are listed in FIG. 9 for adipocytes and FIG. 10 for myocytes. Free fatty acid release from 3T3-L1 adipocytes or C2C12 myocytes was quantified by measuring glycerol secretion into the medium. Glycerol was measured spectrophotometrically using the Free Glycerol Determination Kit ([…], Sigma) and an EL 312e Microplate BIO-KINETICS spectrophotometer (BioTek, Winooski, Vt.). Glycerol release from adipocytes and myocytes was expressed, respectively, as the percent increase in free fatty acid secretion (FIG. 9) and relative glycerol content (glycerol index FIG. 10) ±95% confidence intervals of eight observations for one of three representative experiments.
# [1] = tested on: LPS-stimulated macrophages; conditions: published results, El-Mahmoudy 2002; cited from earlier work
# Caco-2 monolayers = assay: t10-CLA-induced loss of TEER in Caco-2 monolayers; assay type: cell-based, human; conditions: t10-CLA 50 μM control = 100; μg TQ equivalents/mL: Thymoquinone 5.0, NS8 0.11, NS9 0.99, NS10 0.012, NSSpent#2 0.0005; NSSpent#1 5 μg/mL; listed as TQ
# Description: The protocol for growing and differentiation the human Caco-2 colon andenocarcinoma cells was a modification of Protocol 3 as described by Yamashita et al. [[…]., and Furuyama, Y. 2002) New and better protocols for a short-term Caco-2 cell culture system, J Pharm Sci 91, 669-679]. Caco-2 Human Colon Adenocarcinoma cells were obtained from ATCC (Rockville, Md.; catalog #HTB-37) and maintained in a growth media: DMEM (Dulbecco's Modified Eagles Medium 1×) containing L-glutamine, glucose; Cellgro catalog #35-010CV with the following additions: (1) Penicillin (5,000 IU/mL)/Streptomycin (5,000 μg/mL) Cellgro catalog #30-001C1, (2) 10% FBS-Fetal Bovine Serum, Characterized; Hyclone catalog #SH30071.3, and (3) 1% NEAA-Non Essential Amino Acids; Cellgro catalog #25-025-CI; cells were cultured at 37 C in a humidified air-5% CO2 atmosphere in T175 flasks. BIOCOAT^R HTS Caco-2 Assay System kits (Becton Dickinson, N.J.; catalog #354801) consisting of 24-well fibrillar collagen coated inserts and feeder trays were used in all experiments and plated as follows. Media was removed from the T175 flasks and cells were washed with 10 mLs PBS (phosphate buffered saline 1× without Ca^++, without Mg^++; Cellgro #25-053-CI). […]
# [2] = tested on: prostate specific antigen (PSA) secretion by LNCaP prostate cells; assay: PSA secretion from LNCaP prostate cells; assay type: cell-based, Human; conditions: 5 to 100 μg/mL (Spent#1, NSSpent#2: 250 and 500)
# Description: PSA was quantified from the cell culture supernatant fluid using the Quantikine Human KLK3/PSA Immunoassay kit (R&D Systems, Inc., Minneapolis, Minn.). All other materials used in this example were purchased from Sigma (St. Louis, Mo.) or otherwise noted and were of the highest purity commercially available. The N. sativa samples used in this study were those commercial-scale extracts described in Example 1. The LNCaP prostate cell line, which produces PSA, was used to study the effects of commercial-scale N. sativa scale extracts of Example 1 and pure TQ on the secretion of PSA. LNCaP cells were purchased from the American Type Culture Collection (ATCC, Manassas, Va.) and sub-cultured according to instructions supplied by ATCC. Prior to experiments, cells were cultured in DMEM containing 10% FBS-HI added 50 units penicillin/ml and 50 μg streptomycin/ml, and maintained in log phase prior to experimental setup. Cells were grown in a 5% CO2 humidified incubator at 37° C. Components of medium included: (1) 10% FBS/DMEM (Fetal Bovine Serum/Dulbecco's Modified Eagle's Medium) containing 4.5 g glucose/L; (2) 50 U/ml penicillin; and (3) 50 μg/ml streptomycin. Growth medium was made by adding 50 ml of heat inactivated FBS and 5 ml of penicillin/streptomycin to 500 ml DMEM. This medium was stored at 4° C. Before use, the medium was warmed to 37° C. in a water bath. LNCaP cells were seeded at an initial density of 6×10^4 cells/cm^2 in 96-well plates. For two days, the cells were allowed grow to reach confluence. On day three post seeding, cells were treated with TQ, NS8, NS9, NS10, Spent#1, and NSSpent#2 at the concentrations listed in FIGS. 5, 6 and 7. Twenty-four hours later, the supernatant media were sampled and assayed for PSA.
compound,measurement,setting,value
"CC1=CC(=O)C(C(C)C)=CC1=O [Thymoquinone, thymoquinone]",free fatty acid release in adipocytes,3T3-L1 adipocytes,induced free fatty acid release
same,IC50 for NO inhibition in LPS-stimulated macrophages,[1],1.4 to 2.8 µg/mL
same,Relative Loss of TEER,Caco-2 monolayers,inhibited loss of TEER
same,Effect on PSA Secretion over 24 Hours,[2]; at 5 and 10 µg/mL,"Decreased PSA at 5 and 10 μg/mL, dramatic"
same,Effect on PSA Secretion over 24 Hours,[2]; at 50 and 100 µg/mL,increase in PSA secretion at 50 and 100 μg/mL.
same,Effect on PSA Secretion over 24 Hours,[2]; listed as TQ,decreased PSA only at the two lowest doses tested
